Results as given in patent US20150258197A1, “EUTECTIC ISOMETHEPTENE MUCATE” (TONIX PHARMA HOLDINGS LIMITED, priority 2014, published 2015).

Assays:
[1] = cited from earlier work
[2] = test system: imidazoline-1 (I1) receptor; settings: cited from earlier work
[3] = test system: mice; assay: Hot Plate Test; assay type: in vivo; settings: mouse, hot plate 54° C., 10, 30 and 100 mg/kg p.o. 15 minutes before the test
From the text: (§1) Common mouse models for pain include the Formalin Test (Wheeler-Aceto, et al., Psychopharmacology, 104, 35-44, 1991), the Hot Plate Test (Eddy and Leimbach, J. Pharmacol. Exp. Ther., 107, 385-393, 1953), and the Tail-flick Test (D'Amour and Smith, J. Pharmacol. Exp. Ther., 1, 74-79, 1941). These methods detect analgesic activity of compositions of interest. In the Formalin Test, mice are given an intraplantar injection of 5% formalin into one posterior hindpaw to induce paw licking. Test compositions are given to the mice before treatment with formalin and the mice are evaluated and compared to a control group. In the Hot Plate Test, mice are placed onto a hot metal plate maintained at 54° C. and the latency to the first foot-lick is measured. As with the Formalin test, compositions of interest are given to the mice before the test and the mice are evaluated and compared to a control group. In the Tail-flick Test, a mouse's tail is heated by means of a thermal light source, and the latency before the animal withdraws its tail is measured. […]
Mice were placed onto a hot metal plate maintained at 54° C. surrounded by a Plexiglas cylinder (height: 13 cm; diameter: 19 cm). The latency to the first foot-lick was measured (maximum: 30 seconds). […]
Data with the test substance were analyzed by comparing treated groups with vehicle control using ANOVA followed by post-hoc Dunnett's tests. […]

[4] = test system: mice; assay: Tail-flick Test; assay type: in vivo; settings: mouse, thermal light source, three doses (10, 30, 100) p.o. 15 minutes before the test
From the text: Common mouse models for pain include the Formalin Test (Wheeler-Aceto, et al., Psychopharmacology, 104, 35-44, 1991), the Hot Plate Test (Eddy and Leimbach, J. Pharmacol. Exp. Ther., 107, 385-393, 1953), and the Tail-flick Test (D'Amour and Smith, J. Pharmacol. Exp. Ther., 1, 74-79, 1941). These methods detect analgesic activity of compositions of interest. In the Formalin Test, mice are given an intraplantar injection of 5% formalin into one posterior hindpaw to induce paw licking. Test compositions are given to the mice before treatment with formalin and the mice are evaluated and compared to a control group. In the Hot Plate Test, mice are placed onto a hot metal plate maintained at 54° C. and the latency to the first foot-lick is measured. As with the Formalin test, compositions of interest are given to the mice before the test and the mice are evaluated and compared to a control group. In the Tail-flick Test, a mouse's tail is heated by means of a thermal light source, and the latency before the animal withdraws its tail is measured. Test compositions are administered before the test, and compared with a vehicle control group. The analgesic activity of the compositions described herein can be identified using the mouse formalin, hot plate, and tail-flick tests.
A method for detecting analgesic activity followed that described by D'Amour and Smith (J. Pharmacol. Exp. Ther., 1, 74-79, 1941). The mouse's tail was heated by means of a thermal light source (20 volts). The latency before the animal withdraws its tail was measured (maximum: 15 seconds).
Ten mice were studied per group. The test was performed partially blind.
The test substances selected from (R)-isometheptene mucate, and (S)-isometheptene mucate were evaluated at three doses ([…]), administered p.o. 15 minutes before the test, and compared with a vehicle control group. […]
Data with the test substance were analyzed by comparing treated groups with vehicle control using ANOVA followed by post-hoc Dunnett's tests. Data with the reference substance were analyzed using unpaired Student's t tests.

[5] = test system: mice; assay: Formalin Test, late phase (licking score); assay type: in vivo; settings: mouse, 5% formalin intraplantar, three doses p.o. 15 minutes before the test, 15-50 min after formalin
From the text: as §1
Mice were given an intraplantar injection of 5% formalin (25 μL) into one posterior hindpaw. […] Mice were briefly observed at one minute intervals between 15 and 50 minutes after the injection of formalin and the number of occasions that the mice were observed licking the injected paw was recorded. […]

[6] = compared with (S)-isometheptene

CNC(C)CCC=C(C)C (racemic) [Racemic isometheptene, reference compound]
Heart rate and diastolic blood pressure ([1]; in vivo): increase

CN[C@H](C)CCC=C(C)C [(R)-isometheptene]
Binding affinity for the imidazoline-1 (I1) receptor [2]: significant binding affinity | I1 affinity relative to (S)-isometheptene [2, 6]: higher affinity | Potential adverse effects to the cardiovascular system relative to (S)-isometheptene [1, 6]: lower potential adverse effects

CN[C@@H](C)CCC=C(C)C [(S)-isometheptene mucate]
Foot-licking latency compared to vehicle [3]: longer foot-licking latency times | Tail flick latency compared to vehicle [4]: longer tail flick latency times | Licking score compared to vehicle [5]: reduction in licking score
